Source: the NIST ThermoML archive (doi:10.1021/acs.jced.7b00344)

How the values were obtained:
[1] = Liquid; for viscosity / mass density: 101.3 kPa; for viscosity: Capillary tube (Ostwald / Ubbelohde) method; for mass density: Pycnometric method; for vapor or sublimation pressure: Ebulliometric method (Recirculating still)
[2] = xn = mol fraction of the nth substance listed; conditions: 101.3 kPa, Liquid, x1 = 1; for viscosity: Capillary tube (Ostwald / Ubbelohde) method; for mass density: Pycnometric method

CC(=O)CCCCl [1-chloro-4-pentanone]
[1]
Conditions | mass density [kg/m3] | vapor or sublimation pressure [kPa] | viscosity [mPa·s]
303.15 K | 1051.3 | – | 1.582
313.15 K | 1041.1 | – | 1.318
323.15 K | 1031.2 | – | 1.078
333.15 K | 1020.8 | – | 0.9667
343.2 K | – | 2.91 | –
353.1 K | – | 4.66 | –
363.1 K | – | 7.15 | –
373.8 K | – | 10.5 | –
393.8 K | – | 20.79 | –
404.6 K | – | 30.23 | –
413.8 K | – | 41.16 | –
423.8 K | – | 52.6 | –
433.5 K | – | 62.27 | –
438.1 K | – | 72.35 | –
443.6 K | – | 81.58 | –
449.3 K | – | 92.85 | –
454 K | – | 103.42 | –

CC(=O)C1CC1 [1-cyclopropyl ethanone]
[1]
Conditions | mass density [kg/m3] | vapor or sublimation pressure [kPa] | viscosity [mPa·s]
300 K | – | 3.65 | –
303.15 K | 889.8 | – | 0.5572
310.1 K | – | 6.06 | –
313.15 K | 880.3 | – | 0.5015
320.8 K | – | 9.95 | –
323.15 K | 870.6 | – | 0.4524
333.15 K | 861.2 | – | 0.3942
337 K | – | 20.07 | –
347.7 K | – | 30.05 | –
355.6 K | – | 40.07 | –
362.1 K | – | 49.78 | –
367.6 K | – | 59.85 | –
372.6 K | – | 70.04 | –
376.9 K | – | 80.03 | –
380.6 K | – | 89.62 | –
384.8 K | – | 101.3 | –
385 K | – | 102.18 | –

CC(=O)C1CC1 [1-cyclopropyl ethanone] + CC(=O)C1CCOC1=O
[2]
Conditions | mass density [kg/m3] | viscosity [mPa·s]
303.15 K | 889.8 | 0.5572
313.15 K | 880.3 | 0.5015
323.15 K | 870.6 | 0.4524
333.15 K | 861.2 | 0.3942

CC(=O)C1CCOC1=O (centres undefined) [2-acetylbutyrolactone]
[1]
Conditions | mass density [kg/m3] | vapor or sublimation pressure [kPa] | viscosity [mPa·s]
303.15 K | 1185.7 | – | 3.794
313.15 K | 1178.3 | – | 3.424
323.15 K | 1168.9 | – | 3.067
333.15 K | 1159.4 | – | 2.719
385 K | – | 0.552 | –
395.1 K | – | 1.02 | –
405.2 K | – | 1.77 | –
415.3 K | – | 2.92 | –
425.5 K | – | 4.61 | –
434.6 K | – | 6.98 | –
445.1 K | – | 10 | –
464.5 K | – | 20 | –
478.2 K | – | 30.05 | –
489.4 K | – | 40.17 | –
505.8 K | – | 60.05 | –
511.5 K | – | 69.06 | –
517.3 K | – | 78.1 | –
523.3 K | – | 88.01 | –
530.8 K | – | 103.54 | –
530.9 K | – | 101.3 | –
